What was measured:
[1] = system: CD163 mRNA; experiment: Northern blots of CD163 mRNA in treated monocytes; format: cell-based, human; settings: monocytes treated 8 hours; 5 ng/ml IL-10 or 10^-8 M FP
Procedure: Monocytes were treated for 8 hours with either IL-10, the glucocorticoid FP or control media.
Human monocytes were isolated and cultured overnight as described for western blots. Monocytes were then stimulated for 8 hours with 5 ng/ml IL-10 (R&D Systems) or 10^-8 M FP. Total RNA was isolated from IL-10 stimulated, glucocorticoid stimulated and control monocytes as described by Dreier, et al. (Dreier, J. et al. 1998. DNA Cell Biol. 17:321-323). 10 μg of total RNA per sample were electrophoretically separated in a 1% agarose, 2% formaldehyde gel and transferred onto a Hybond N^+nylon membrane (Amersham Inc., Arlington Heights, Ill.) in 20x saline-sodium citrate (SSC) using an LKB 2016 VacuGene blotting apparatus. Antisense RNA probes for northern hybridization were generated from linearized DNA templates using a digoxigenin RNA labeling kit (Boehringer Mannheim, Mannheim, Germany) and T7 RNA polymerase (New England Biolabs, Schwalbach, Germany) as described by the manufacturer. Prehybridization was performed at 68° C. for 1 hr in a high SDS hybridization buffer (7% SDS, 5x SSC, 50% formamide, 50 mM sodium phosphate, 2% casein, 0.1% N-lauroylsarcosine, pH 7.0). Subsequently the heat-denatured probes (10 minutes at 95° C.) were added to the prehybridization solution (100 ng/ml) and hybridized at 68° C. for 16 hours. […]

[2] = system: monocyte CD163 expression; experiment: CD163 expression on monocytes of PBMCs cultured with mediators, staining and flow cytometric analysis; format: cell-based, human; settings: for increase of monocyte CD163 expression: PBMCs treated 24 hours, DEX 200 nM; for effect of cytokine alone on monocyte CD163 expression: at the concentrations tested
Procedure: To assess whether different cytokines could influence CD163 expression, freshly isolated PBMCs were cultured for 24 hours in the presence of various cytokines, 200 nM DEX (as a positive control for CD163 upregulation), or control media. The cells were then subjected to staining and flow cytometric analysis.
For cytokine treatment studies, isolated PBMCs were suspended in hepes buffered RPMI 1640/0.05% gentamicin/10% FBS at a concentration of 2.0×10^6 to 2.5×10^6 cells/ml and cultured in 96 well plates at 37° C. and 5% CO2 in the presence of various mediators (Table 1). Mononuclear cells were stained for flow cytometric analysis after 24 hours in culture unless otherwise indicated. This enhanced cell recovery because monocytes, which initially adhere to plastic vessels, transiently detach from culture wells at 24-48 hours.
All staining procedures were performed at 4 C. Briefly, cultured PBMCs were incubated with normal human IgG (6 mg/ml) to block Fc receptor-specific binding of mAbs and 30 μg/ml of the isotype control mAb P3 or a saturating amount of mAb MAC2-48 (20 μg/ml) for one hour. Cells were then washed and stained for one hour with 17.5 μg/ml FITC labeled goat F(ab=)2 anti-mouse Ig. The cells were again washed and fixed with 1% methanol free formalin.
Cell fluorescence of monocytes gated using forward and side scatter was analyzed using a Becton Dickenson FACScan (Franklin Lakes, N.J.). Mean fluorescence intensity (MFI) was calculated by subtracting the MFI of the P3 stained mononuclear cells from the MFI of the corresponding Mac2-48 stained cells.

[3] = system: CD163 expression on monocytes; experiment: Monocytes cultured with LPS, DEX or IL-10, surface CD163 by immunofluorescence; format: cell-based, human; settings: monocytes cultured with the agent alone
Procedure: In addition to testing the effects of cytokines in combination with glucocorticoids on levels of CD163, studies were performed to examine the effects of glucocorticoids in combination with lipopolysaccharide (LPS). […] However, when monocytes were cultured for 48 hours with DEX combined with LPS, their was a synergistic increase in CD163 expression, where the effect of DEX alone was increased by more than 2-fold when LPS treatment was added.

[4] = system: monocyte surface CD163; settings: Droste et al. 1999; blocked by protease inhibitors; cited from earlier work
[5] = system: monocyte surface CD163; experiment: Shedding of monocyte surface CD163 in vitro; format: cell-based, human; settings: cells pretreated with glucocorticoids plus LPS
Procedure: Therefore, like PMA, LPS is capable of inducing CD163 shedding. LPS-induced shedding occurred even with monocytes that had been cultured for 48 hours in DEX and thus had 5- to 10-fold higher levels of surface CD163 than freshly isolated monocytes. […] This LPS-conferred resistance to subsequent LPS-induced shedding of CD163 is similar to reported endotoxin pre-conditioning for resistance to subsequent inflammatory insults.

[6] = system: CD163 expression on monocytes; settings: purified monocytes, 2 days; cited from earlier work

For CCC(=O)O[C@]1(C(=O)SCF)[C@H](C)C[C@H]2[C@@H]3C[C@H](F)C4=CC(=O)C=C[C@]4(C)[C@@]3(F)[C@@H](O)C[C@@]21C [FP, reference compound], the “CD163 mRNA levels” value [1] was “increased from undetectable to strong bands”.

With C[C@@H]1C[C@H]2[C@@H]3CCC4=CC(=O)C=C[C@]4(C)[C@@]3(F)[C@@H](O)C[C@]2(C)[C@@]1(O)C(=O)CO [DEX, reference compound] the “increase of monocyte CD163 expression” value ([2]; p<0.01) was about 7 fold and the “surface CD163 on monocytes, single agent” value [3] was “increased expression of CD163”.

In the case of CCCCCCCCCCCCCC(=O)O[C@@H]1[C@@H](C)[C@@]2(O)[C@@H](C=C(CO)C[C@]3(O)C(=O)C(C)=C[C@@H]23)[C@@H]2C(C)(C)[C@]12OC(C)=O [PMA], the “shedding of surface CD163 from monocytes in culture” value [4] is given as “induce rapid shedding of surface CD163” and the “shedding of surface CD163 on subsequent treatment” value [5] is given as “remained sensitive to PMA-induced shedding”.

In the case of IL-13: interleukin-13, a cytokine, the “effect of cytokine alone on monocyte CD163 expression” value ([2]; PBMCs 24 hours) is reported as “did not upregulate CD163 expression”.

In the case of “GM-CSF: granulocyte-macrophage colony stimulating factor”, the “effect of cytokine plus DEX on CD163 expression over DEX treatment alone” value ([2]; PBMCs 24 hours) is listed as “does not enhance CD163 expression over DEX treatment alone”, the “effect of cytokine alone on CD163 expression” value [6] is listed as “neither GM-CSF nor IL-4 alone had any effect” and the “effect of cytokine plus DEX on CD163 expression” value [6] is listed as “synergistic effect”.

B1: IL-10: Interleukin-10 (originally known as cytokine synthesis inhibitory factor), a cytokine (protein, UniProt P22301 19-178, looked up)
Interleukin-10: SPGQGTQSENSCTHFPGNLPNMLRDLRDAFSRVKTFFQMKDQLDNLLLKESLLEDFKGYLGCQALSEMIQFYLEEVMPQAENQDPDIKAHVNSLGENLKTLRLRLRRCHRFLPCENKSKAVEQVKNAFNKLQEKGIYKAMSEFDIFINYIEAYMTMKIRN
For B1, the “increase of CD163 expression compared to control” value ([2]; PBMCs 24 hours, 10 and 100 ng/ml IL-10, p<0.01) was “approximately 3.5 fold”, the “increase of monocyte CD163 expression” value ([2]; p<0.01) was “approximately 4 fold” and the “CD163 mRNA levels” value [1] was “increased from undetectable to strong bands”. For the same molecule, the “surface CD163 on monocytes, single agent” value [3] was “increased expression of CD163”.

B2: IL-4: interleukin-4, a cytokine (protein, UniProt P05112 25-153, looked up)
Interleukin-4: HKCDITLQEIIKTLNSLTEQKTLCTELTVTDIFAASKNTTEKETFCRAATVLRQFYSHHEKDTRCLGATAQQFHRHKQLIRFLKRLDRNLWGLAGLNSCPVKEANQSTLENFLERLKTIMREKYSKCSS
For B2, the “effect of cytokine plus DEX on CD163 expression over DEX treatment alone” value ([2]; PBMCs 24 hours) is listed as “does not enhance CD163 expression over DEX treatment alone”, the “effect of cytokine alone on monocyte CD163 expression” value ([2]; PBMCs 24 hours) is listed as “did not upregulate CD163 expression” and the “effect of cytokine alone on CD163 expression” value [6] is listed as “neither GM-CSF nor IL-4 alone had any effect”. For the same molecule, the “effect of cytokine plus DEX on CD163 expression” value [6] was “synergistic effect”.

From US20010041177A1, “Methods for detecting inflammation and inflammatory conditions” (priority 2000, published 2001)
